Source: ChEMBL document CHEMBL5316327, “Design and Synthesis of Orally Active Quinolyl Pyrazinamides as Sigma 2 Receptor Ligands for the Treatment of Pancreatic Cancer” (J Med Chem, 2023)
Activity calls are given as the source filed them. No cut-off for these calls is given here.

Key:
[1] = target: Sigma non-opioid intracellular receptor 1 (Homo sapiens, UniProt Q99720); test: Displacement of [3H](+)-pentazocine from human sigma 1 receptor transfected in human HEK293T cells assessed as inhibition constant by radioligand competition binding assay; type: cell-based
Histamine H3 receptor = Histamine H3 receptor (Homo sapiens, UniProt Q9Y5N1); test: Binding affinity to histamine H3 receptor (unknown origin) assessed as inhibition constant
[2] = target: 5-hydroxytryptamine receptor 1B (Homo sapiens, UniProt P28222); test: Binding affinity to 5-HT1B receptor (unknown origin) assessed as inhibition constant
[3] = Metabolic stability in mouse liver microsomes assessed as half life at 10 uM measured upto 60 mins in presence of NADPH by LC-MS/MS analysis; type: ADME, Microsome; conditions: 1 h
MIA PaCa-2 [4] = test: Induction of apoptosis in human MIA PaCa-2 cells assessed as viable cells at […] measured after 48 hrs by Annexin V-Alexa Fluor 488/propidium iodide staining based flow cytometry (reference value: 82.23%); type: functional; conditions: dose 2.5 µM, read-out: Activity
MIA PaCa-2 [5] = test: Induction of apoptosis in human MIA PaCa-2 cells assessed as late apoptotic cells at 1.0 uM measured after 48 hrs by Annexin V-Alexa Fluor 488/propidium iodide staining based flow cytometry (reference value: 6.63%); type: functional
MIA PaCa-2 [6] = test: Induction of apoptosis in human MIA PaCa-2 cells assessed as late apoptotic cells at 5.0 uM measured after 48 hrs by Annexin V-Alexa Fluor 488/propidium iodide staining based flow cytometry (reference value: 6.63%); type: functional
MIA PaCa-2 [7] = test: Induction of apoptosis in human MIA PaCa-2 cells assessed as late apoptotic cells at 10.0 uM measured after 48 hrs by Annexin V-Alexa Fluor 488/propidium iodide staining based flow cytometry (reference value: 6.63%); type: functional
MIA PaCa-2 [8] = test: Induction of apoptosis in human MIA PaCa-2 cells assessed as necrotic cells at 10.0 uM measured after 48 hrs by Annexin V-Alexa Fluor 488/propidium iodide staining based flow cytometry (reference value: 7.03%); type: functional
HCT-116 [9] = test: Induction of apoptosis in human HCT-116 cells assessed as viable cells at 1.0 uM measured after 48 hrs by Annexin V-Alexa Fluor 488/propidium iodide staining based flow cytometry (reference value: 79.69%); type: functional; conditions: read-out: Activity
HCT-116 [10] = test: Induction of apoptosis in human HCT-116 cells assessed as necrotic cells at 10.0 uM measured after 48 hrs by Annexin V-Alexa Fluor 488/propidium iodide staining based flow cytometry (reference value: 9.06%); type: functional
MIA PaCa-2 [11] = test: Induction of cell cycle arrest in human MIA PaCa-2 cells assessed as accumulation of cells in G0/G1 phase at […] measured after 24 hrs by propidium iodide staining-based flow cytometric analysis (reference value: 53%); type: functional; conditions: dose 2.5 µM
MIA PaCa-2 [12] = test: Induction of cell cycle arrest in human MIA PaCa-2 cells assessed as accumulation of cells in G0/G1 phase at 5 uM measured after 24 hrs by propidium iodide staining-based flow cytometric analysis (reference value: 53%); type: functional
MIA PaCa-2 [13] = test: Induction of cell cycle arrest in human MIA PaCa-2 cells assessed as accumulation of cells in S phase at 5 uM measured after 24 hrs by propidium iodide staining-based flow cytometric analysis (reference value: 31%); type: functional
MIA PaCa-2 [14] = test: Induction of cell cycle arrest in human MIA PaCa-2 cells assessed as accumulation of cells in G2/M phase at 1 uM measured after 24 hrs by propidium iodide staining-based flow cytometric analysis (reference value: 16%); type: functional
MIA PaCa-2 [15] = test: Induction of cell cycle arrest in human MIA PaCa-2 cells assessed as accumulation of cells in G2/M phase at 10 uM measured after 24 hrs by propidium iodide staining-based flow cytometric analysis (reference value: 16%); type: functional
HCT-116 [16] = test: Induction of cell cycle arrest in human HCT-116 cells assessed as accumulation of cells in G0/G1 phase at 5 uM measured after 24 hrs by propidium iodide staining-based flow cytometric analysis (reference value: 43%); type: functional
HCT-116 [17] = test: Induction of cell cycle arrest in human HCT-116 cells assessed as accumulation of cells in S phase at 1 uM measured after 24 hrs by propidium iodide staining-based flow cytometric analysis (reference value: 47%); type: functional
HCT-116 [18] = test: Induction of cell cycle arrest in human HCT-116 cells assessed as accumulation of cells in G2/M phase at 10 uM measured after 24 hrs by propidium iodide staining-based flow cytometric analysis (reference value: 10%); type: functional
[19] = Cmax in CD-1 mouse plasma at 20 mg/kg, po; type: ADME, organism-based; design: dose 20 mg/kg, route po
[20] = Apparent oral clearance in CD-1 mouse plasma at 20 mg/kg, po; type: ADME, organism-based
[21] = Apparent volume of distribution during terminal phase in CD-1 mouse plasma at 20 mg/kg, po; type: ADME, organism-based; conditions: read-out: Vz/F
Panc02 [22] = test: Antitumor activity against mouse Panc02 cells xenografted in C57BL/6 mouse model assessed as delayed tumor growth at 60 mg/kg, ip administered daily for 28 days by caliper method; type: functional, organism-based; conditions: time 28.0 day
HCT-116 [23] = test: Antagonistic cytotoxicity against human HCT-116 cells at upto 1 uM measured after 6 days in presence of elesclomol by crystal violet staining based analysis; type: functional, cell-based; conditions: time 6.0 day
HCT-116 [24] = test: Synergistic cytotoxicity against human HCT-116 cells at upto 1 uM measured after 6 days in presence of gold acetate by crystal violet staining based analysis; type: functional, cell-based; conditions: time 6.0 day
HCT-116 [25] = test: Synergistic cytotoxicity against human HCT-116 cells at upto 1 uM measured after 6 days in presence of silver acetate by crystal violet staining based analysis; type: functional, cell-based; conditions: time 6.0 day
MIA PaCa-2 [26] = test: Inhibition of colony formation in human MIA PaCa-2 cells at 0.04 to 30 uM pretreated with ammonium tetrathiomolybdate for 4 hrs followed by compound addition and measured after 6 days; type: functional, cell-based; conditions: dose 0.04-30 µM, time 6.0 day
HCT-116 [27] = test: Inhibition of colony formation in human HCT-116 cells at 0.04 to 30 uM pretreated with ammonium tetrathiomolybdate for 4 hrs followed by compound addition and measured after 6 days; type: functional, cell-based; conditions: dose 0.04-30 µM, time 6.0 day
MIA PaCa-2 [28] = test: Additive ferroptosis activity in human MIA-PaCa-2 cells at upto 1 uM measured after 7 days in presence of deferoxamine by crystal violet staining based analysis; type: functional, cell-based; conditions: time 7.0 day
MIA PaCa-2 [29] = test: Additive ferroptosis activity in human MIA-PaCa-2 cells at upto 1 uM measured after 7 days in presence of erastin by crystal violet staining based analysis; type: functional, cell-based; conditions: time 7.0 day
MIA PaCa-2 [30] = test: Additive ferroptosis activity in human MIA-PaCa-2 cells at upto 1 uM measured after 7 days in presence of FIN56 by crystal violet staining based analysis; type: functional, cell-based; conditions: time 7.0 day
MIA PaCa-2 [31] = test: Synergistic ferroptosis activity in human MIA-PaCa-2 cells at upto 1 uM measured after 7 days in presence of chloroquine by crystal violet staining based analysis; type: functional, cell-based; conditions: time 7.0 day
MIA PaCa-2 [32] = test: Synergistic cytotoxicity in human MIA PaCa-2 cells at upto 1 uM measured after 7 days in presence of paclitaxel by crystal violet staining based analysis; type: functional, cell-based; conditions: time 7.0 day
MIA PaCa-2 [33] = test: Synergistic cytotoxicity in human MIA PaCa-2 cells at upto 1 uM measured after 7 days in presence of CI-27 by crystal violet staining based analysis; type: functional, cell-based; conditions: time 7.0 day
Panc02 [34] = test: cells; conditions: Mus musculus, Panc02, 72 h
cells = conditions: Mus musculus, KPC2, 72 h

Histamine H3 receptor, sequence (Q9Y5N1 whole entry): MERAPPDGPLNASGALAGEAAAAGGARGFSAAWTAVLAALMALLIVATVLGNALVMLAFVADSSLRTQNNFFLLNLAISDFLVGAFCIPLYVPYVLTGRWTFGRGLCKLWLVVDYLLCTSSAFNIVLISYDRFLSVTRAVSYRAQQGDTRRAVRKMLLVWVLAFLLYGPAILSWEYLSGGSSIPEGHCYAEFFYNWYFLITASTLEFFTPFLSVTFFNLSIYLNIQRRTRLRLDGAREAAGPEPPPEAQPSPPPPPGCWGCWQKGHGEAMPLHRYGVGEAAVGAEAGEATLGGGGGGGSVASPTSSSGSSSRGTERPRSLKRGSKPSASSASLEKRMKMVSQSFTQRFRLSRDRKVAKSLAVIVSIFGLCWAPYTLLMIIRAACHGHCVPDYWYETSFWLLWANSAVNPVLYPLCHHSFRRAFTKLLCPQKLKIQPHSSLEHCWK
5-hydroxytryptamine receptor 1B, sequence (P28222 whole entry): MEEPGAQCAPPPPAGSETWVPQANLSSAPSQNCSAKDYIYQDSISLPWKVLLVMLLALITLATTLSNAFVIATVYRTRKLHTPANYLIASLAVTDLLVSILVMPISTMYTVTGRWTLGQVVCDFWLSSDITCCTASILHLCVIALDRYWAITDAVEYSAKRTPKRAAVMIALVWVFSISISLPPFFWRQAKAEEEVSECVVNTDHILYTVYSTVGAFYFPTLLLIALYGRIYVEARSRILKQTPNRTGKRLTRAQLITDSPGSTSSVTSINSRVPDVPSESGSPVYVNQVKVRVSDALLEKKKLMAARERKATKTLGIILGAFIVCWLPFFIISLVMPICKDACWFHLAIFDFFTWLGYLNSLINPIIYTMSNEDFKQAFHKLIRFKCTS
Sigma non-opioid intracellular receptor 1, sequence (Q99720 whole entry): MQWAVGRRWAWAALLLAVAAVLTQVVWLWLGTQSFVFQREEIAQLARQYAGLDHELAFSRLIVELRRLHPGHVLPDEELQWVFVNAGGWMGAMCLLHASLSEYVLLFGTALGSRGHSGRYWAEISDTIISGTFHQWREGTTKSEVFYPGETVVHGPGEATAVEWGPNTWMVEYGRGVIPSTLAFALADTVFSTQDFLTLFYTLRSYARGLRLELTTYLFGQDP

- Ki [1]: 0.53 µM
- Ki (Histamine H3 receptor): 1.18 µM
- Ki [2]: 0.646 µM
- t1/2 [3]: 1 h
- Cmax [19]: 254 ng/mL
- CL/F [20]: 98.3 mL/min/kg
- Vd/F [21]: 51.8 L/kg
- IC50 (Panc02 [34]): 3.7 µM
- IC50 (cells): 2.7 µM
SMILES: CCN(CC)CCCC(C)Nc1cnc(C(=O)Nc2ccc(Cl)c3cccnc23)cn1 (stereo unspecified)
- viability at […] (MIA PaCa-2 [4]): 54.5%
- Activity (MIA PaCa-2 [5]): 30.8%
- Activity (MIA PaCa-2 [6]): 40.03%
- Activity (MIA PaCa-2 [7]): 53.96%
- Activity (MIA PaCa-2 [8]): 7.21%
- viability at 1 µM (HCT-116 [9]): 78.3%
- Activity (HCT-116 [10]): 2.37%
- Activity (MIA PaCa-2 [11]): 49%
- Activity (MIA PaCa-2 [12]): 61%
- Activity (MIA PaCa-2 [13]): 22%
- Activity (MIA PaCa-2 [14]): 13%
- Activity (MIA PaCa-2 [15]): 17%
- Activity (HCT-116 [16]): 44%
- Activity (HCT-116 [17]): 34%
- Activity (HCT-116 [18]): 22%
- Activity (Panc02 [22]): Active
- Activity (HCT-116 [23]): inactive
- Activity (HCT-116 [24]): inactive
- Activity (HCT-116 [25]): inactive
- inhibition (MIA PaCa-2 [26]): inactive
- inhibition (HCT-116 [27]): inactive
- Activity (MIA PaCa-2 [28]): Active
- Activity (MIA PaCa-2 [29]): Active
- Activity (MIA PaCa-2 [30]): Active
- Activity (MIA PaCa-2 [31]): Active
- Activity (MIA PaCa-2 [32]): inactive
- Activity (MIA PaCa-2 [33]): inactive
